Reference: patent publication US20030170702A1, “Methods for polysome distribution analysis of mRNA's” (priority 2002, published 2003)

Assays:
[1] = target: T1, MultiScribe Reverse Transcriptase (Moloney murine leukemia virus, UniProt P03355); test: Inhibition of reverse transcription (RT) by heparin and sucrose, 32P-labeled primer extension; type: biochemical
T1 construct: MultiScribe Reverse Transcriptase; purchased ABI (Applied Biosystems Inc)
Experimental: (§1) We discovered that heparin and sucrose inhibit reverse transcription (RT) and polymerase chain reaction (PCR). To determine the level of heparin or sucrose that inhibits these reactions, RT and PCR reactions were performed at varying heparin and sucrose concentrations. Each reaction mixture contained 25 μL 2× SYBR Green PCR Master Mix (Applied Biosystems Inc), 0.25 μL MultiScribe Reverse Transcriptase at 50U/μl (ABI), 0.4 μL RNase Inhibitor at 20U/μl (ABI), 25 nM forward primer, 25 nM reverse primer, 10 μl RNA template, and enough water to bring the final reaction volume to 50 μl. For the RT reactions, E coli RNase P RNA was used as the RNA template, and 1.25 μl of each primer from a stock solution of 1 μM was used, giving a final primer concentration of 25 nM. The RNase P primers were RNASEP-F19 (5′-[…]-3′, SEQ ID NO: 1) and RNASEP-R278 (5′-[…]-3′, SEQ ID NO: 2). All primers were purchased from Integrated DNA Technologies, Inc. The 2× SYBR Green Master Mix contains Taq polymerase, nucleotides, buffer, and magnesium. These reaction mixtures were assembled in a Micro Amp Optical 96 well reaction plate (ABI).
To examine the reverse transcription efficiency in the presence of sucrose and heparin, the reverse primer specific for RNase P RNA was ^32P labeled, and used as the only source of reverse primer. The radiolabeled primer was extended using reverse transcription during an incubation at 48° C. for 30 minutes. The resultant DNA was isolated and separated on a 6% denaturing gel. After soaking and drying the gel, the ^32P labeled reverse transcription product was quantitated using the Cyclone Storage Phosphor System (Packard) and Optiquant Image Analysis Software (Packard). This software reports the intensity of a selected band on the gel in units called Digital Light Units (DLU). The number of DLUs is listed in the “Raw Activity” column in Table 1. The amounts of sucrose and heparin in the samples as well as the final concentration of sucrose (percent weight per volume, % w/v) and heparin in the RT reaction are also listed. The highest amount represents 30% sucrose (average of the amount in a typical sucrose gradient) and 1 mg/mL heparin (amount of heparin in a typical sucrose gradient fraction). The amount of reverse transcription activity (“% RT” column) is expressed as a percent of the activity in the presence of differing amounts of sucrose or heparin relative to the activity in the absence of these substances.

[2] = target: T2, Taq polymerase (Thermus aquaticus, UniProt P19821); test: Inhibition of PCR by heparin and sucrose, SYBR Green quantitation of amplicon; type: biochemical; details: for concentration that inhibits PCR efficiency: final concentration in PCR reaction, 35 cycles
T2 construct: purchased Applied Biosystems Inc
Experimental: as §1
PCR reactions were also performed in the presence of varying amounts of heparin and sucrose. The plasmid pJA2′, which contains the DNA copy of the E coli RNase P RNA, was used as the template in these PCR reactions to generate both experimental and standard curves. Thirty-five cycles of PCR were performed in which the reaction mixture was incubated at 95° C. for 15 seconds for denaturation and 60° C. for one minute for annealing and extension. The reaction mixtures in the 96 well plate were loaded in the Gene Amp 5700 Sequence Detection System (ABI). This machine quantitates the amount of PCR product made after each cycle. A standard curve is generated with each reaction and used to calculate the quantity of the PCR product or amplicon for each experimental reaction. For the “Raw Activity” column in Table 2 the units are ng of DNA.

[3] = heparin 0.002 ng/μL final in RT reaction (0.06 in sample)
[4] = heparin 0.012 ng/μL final in RT reaction (0.32 in sample)
[5] = heparin 0.064 ng/μL final in RT reaction (1.6 in sample)
[6] = heparin 0.32 ng/μL final in RT reaction (8 in sample)
[7] = heparin 1.6 ng/μL final in RT reaction (40 in sample)
[8] = heparin 8 ng/μL final in RT reaction (200 in sample)
[9] = heparin 40 ng/μL final in RT reaction (1000 in sample)
[10] = heparin 0.002 ng/μL final in PCR reaction (0.06 in sample)
[11] = heparin 0.012 ng/μL final in PCR reaction (0.32 in sample)
[12] = heparin 0.064 ng/μL final in PCR reaction (1.6 in sample)
[13] = heparin 0.32 ng/μL final in PCR reaction (8 in sample)
[14] = heparin 1.6 ng/μL final in PCR reaction (40 in sample)
[15] = heparin 8 ng/μL final in PCR reaction (200 in sample)
[16] = heparin 40 ng/μL final in PCR reaction (1000 in sample)
[17] = sucrose 0.001 % W/V final in RT reaction (0.04 % in sample)
[18] = sucrose 0.004 % W/V final in RT reaction (0.12 % in sample)
[19] = sucrose 0.014 % W/V final in RT reaction (0.37 % in sample)
[20] = sucrose 0.044 % W/V final in RT reaction (1.11 % in sample)
[21] = sucrose 0.133 % W/V final in RT reaction (3.33 % in sample)
[22] = sucrose 0.4 % W/V final in RT reaction (10 % in sample)
[23] = sucrose 1.2 % W/V final in RT reaction (30 % in sample)
[24] = sucrose 0.001 % w/v final in PCR reaction (0.04 % in sample)
[25] = sucrose 0.004 % w/v final in PCR reaction (0.12 % in sample)
[26] = sucrose 0.014 % w/v final in PCR reaction (0.37 % in sample)
[27] = sucrose 0.044 % w/v final in PCR reaction (1.11 % in sample)
[28] = sucrose 0.133 % w/v final in PCR reaction (3.33 % in sample)
[29] = sucrose 0.4 % w/v final in PCR reaction (10 % in sample)
[30] = sucrose 1.2 % w/v final in PCR reaction (30 % in sample)

T2 sequence (P19821 whole entry): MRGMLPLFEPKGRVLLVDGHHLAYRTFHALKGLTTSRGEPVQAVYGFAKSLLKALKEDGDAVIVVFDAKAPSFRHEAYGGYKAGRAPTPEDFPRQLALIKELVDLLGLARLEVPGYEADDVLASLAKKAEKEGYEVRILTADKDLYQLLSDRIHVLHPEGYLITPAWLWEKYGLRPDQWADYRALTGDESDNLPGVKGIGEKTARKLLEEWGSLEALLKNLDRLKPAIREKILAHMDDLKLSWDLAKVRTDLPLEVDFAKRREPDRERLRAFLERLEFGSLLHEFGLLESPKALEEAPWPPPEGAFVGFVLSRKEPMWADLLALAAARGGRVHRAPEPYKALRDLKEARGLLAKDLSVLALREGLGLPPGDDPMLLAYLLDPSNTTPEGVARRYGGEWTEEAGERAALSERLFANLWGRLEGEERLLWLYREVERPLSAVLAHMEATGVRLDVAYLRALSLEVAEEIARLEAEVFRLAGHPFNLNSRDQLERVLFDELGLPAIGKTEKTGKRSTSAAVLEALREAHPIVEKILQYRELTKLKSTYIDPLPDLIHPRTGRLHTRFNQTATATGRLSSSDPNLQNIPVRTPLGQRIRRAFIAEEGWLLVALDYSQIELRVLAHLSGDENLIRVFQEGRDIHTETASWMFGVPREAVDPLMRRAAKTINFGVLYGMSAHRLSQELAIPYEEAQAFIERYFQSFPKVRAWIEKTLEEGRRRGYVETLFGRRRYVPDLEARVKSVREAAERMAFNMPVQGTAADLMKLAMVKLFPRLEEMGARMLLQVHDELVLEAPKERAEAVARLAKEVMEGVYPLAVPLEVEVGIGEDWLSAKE

heparin
concentration that significantly inhibits reverse transcription efficiency ([1]; final concentration in RT reaction): ≥ 0.32 ng/µL | % RT (reverse transcription activity relative to activity in absence of substance) [1, 3]: 108.01% | Raw Activity (RT product band intensity) [1, 3]: 10.79 DLU | % RT (reverse transcription activity relative to activity in absence of substance) [1, 4]: 101.8% | Raw Activity (RT product band intensity) [1, 4]: 10.17 DLU | % RT (reverse transcription activity relative to activity in absence of substance) [1, 5]: 93.293% | Raw Activity (RT product band intensity) [1, 5]: 9.32 DLU | % RT (reverse transcription activity relative to activity in absence of substance) [1, 6]: 72.573% | Raw Activity (RT product band intensity) [1, 6]: 7.25 DLU | % RT (reverse transcription activity relative to activity in absence of substance) [1, 7]: 3.6036% | Raw Activity (RT product band intensity) [1, 7]: 0.36 DLU | % RT (reverse transcription activity relative to activity in absence of substance) [1, 8]: 0.6006% | Raw Activity (RT product band intensity) [1, 8]: 0.06 DLU | % RT (reverse transcription activity relative to activity in absence of substance) [1, 9]: 0.8008% | Raw Activity (RT product band intensity) [1, 9]: 0.08 DLU | concentration that inhibits PCR efficiency [2]: 0.012 ng/µL | % PCR [2, 10]: 107.69% | Raw Activity (quantity of PCR product) [2, 10]: 0.002 11.2 ng of DNA | % PCR [2, 11]: 75.962% | Raw Activity (quantity of PCR product) [2, 11]: 7.9 ng of DNA | % PCR [2, 12]: 29.808% | Raw Activity (quantity of PCR product) [2, 12]: 3.1 ng of DNA | % PCR [2, 13]: 0% | Raw Activity (quantity of PCR product) [2, 13]: 0 ng of DNA | % PCR [2, 14]: 0% | Raw Activity (quantity of PCR product) [2, 14]: 0 ng of DNA | % PCR [2, 15]: 0% | Raw Activity (quantity of PCR product) [2, 15]: 0 ng of DNA | % PCR [2, 16]: 0% | Raw Activity (quantity of PCR product) [2, 16]: 0 ng of DNA

OC[C@H]1O[C@@](CO)(O[C@H]2O[C@H](CO)[C@@H](O)[C@H](O)[C@H]2O)[C@@H](O)[C@@H]1O [Sucrose, sucrose]
% RT (reverse transcription activity relative to activity in absence of substance) [1, 17]: 133.445% | Raw Activity (RT product band intensity) [1, 17]: 7.94 DLU | % RT (reverse transcription activity relative to activity in absence of substance) [1, 18]: 158.487% | Raw Activity (RT product band intensity) [1, 18]: 9.43 DLU | % RT (reverse transcription activity relative to activity in absence of substance) [1, 19]: 171.933% | Raw Activity (RT product band intensity) [1, 19]: 10.23 DLU | % RT (reverse transcription activity relative to activity in absence of substance) [1, 20]: 159.832% | Raw Activity (RT product band intensity) [1, 20]: 9.51 DLU | % RT (reverse transcription activity relative to activity in absence of substance) [1, 21]: 155.798% | Raw Activity (RT product band intensity) [1, 21]: 9.27 DLU | % RT (reverse transcription activity relative to activity in absence of substance) [1, 22]: 119.328% | Raw Activity (RT product band intensity) [1, 22]: 7.1 DLU | % RT (reverse transcription activity relative to activity in absence of substance) [1, 23]: 96.1345% | Raw Activity (RT product band intensity) [1, 23]: 5.72 DLU | effect on the efficiency of reverse transcription ([1]; up to 1.2 % W/V sucrose final, 48° C. for 30 minutes): does not inhibit | concentration that inhibits PCR efficiency [2]: 0.004 % w/v | % PCR [2, 24]: 102% | Raw Activity (quantity of PCR product) [2, 24]: 10.2 ng of DNA | % PCR [2, 25]: 66.6% | Raw Activity (quantity of PCR product) [2, 25]: 6.66 ng of DNA | % PCR [2, 26]: 67% | Raw Activity (quantity of PCR product) [2, 26]: 6.7 ng of DNA | % PCR [2, 27]: 61% | Raw Activity (quantity of PCR product) [2, 27]: 6.1 ng of DNA | % PCR [2, 28]: 65.7% | Raw Activity (quantity of PCR product) [2, 28]: 6.57 ng of DNA | % PCR [2, 29]: 66.7% | Raw Activity (quantity of PCR product) [2, 29]: 6.67 ng of DNA | % PCR [2, 30]: 72.6% | Raw Activity (quantity of PCR product) [2, 30]: 7.26 ng of DNA
